IC50 and Ki data for six compounds are collected here from ChEMBL document CHEMBL1909046, “DrugMatrix in vitro pharmacology data”.

The target of one test is T1, D(4) dopamine receptor (Homo sapiens, UniProt P21917).
T1 sequence (P21917 whole entry): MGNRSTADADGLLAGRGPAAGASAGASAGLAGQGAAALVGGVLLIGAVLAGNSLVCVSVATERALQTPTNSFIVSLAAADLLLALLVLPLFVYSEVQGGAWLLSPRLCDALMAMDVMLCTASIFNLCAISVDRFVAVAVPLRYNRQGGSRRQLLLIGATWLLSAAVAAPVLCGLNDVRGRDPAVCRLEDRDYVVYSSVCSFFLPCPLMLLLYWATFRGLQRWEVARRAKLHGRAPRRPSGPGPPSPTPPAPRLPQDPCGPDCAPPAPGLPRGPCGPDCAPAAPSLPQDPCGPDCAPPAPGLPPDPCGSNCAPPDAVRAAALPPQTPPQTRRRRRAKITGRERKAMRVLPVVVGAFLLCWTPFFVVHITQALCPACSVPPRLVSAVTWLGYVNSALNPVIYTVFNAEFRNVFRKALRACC
Put plainly: DRUGMATRIX: Dopamine D4.2 radioligand binding (ligand: [3H] Spiperone). In kind it is cell membranes, CHO-K1, Membrane. The note with it: cho-k1; Not Active = under 50% inhibition at 10 µM.

A short description of test [1]: DRUGMATRIX: Atrial Natriuretic Factor (ANF) radioligand binding (ligand: [125I] ANF (rat)). In kind it is cell membranes, Cavia porcellus, Dunkin-Hartley, Adrenal gland, Membrane. The note with it: Not Active = under 50% inhibition at 10 µM.
Test [2] addresses T2, Alpha-2C adrenergic receptor (Homo sapiens, UniProt P18825).
T2 sequence (P18825 whole entry): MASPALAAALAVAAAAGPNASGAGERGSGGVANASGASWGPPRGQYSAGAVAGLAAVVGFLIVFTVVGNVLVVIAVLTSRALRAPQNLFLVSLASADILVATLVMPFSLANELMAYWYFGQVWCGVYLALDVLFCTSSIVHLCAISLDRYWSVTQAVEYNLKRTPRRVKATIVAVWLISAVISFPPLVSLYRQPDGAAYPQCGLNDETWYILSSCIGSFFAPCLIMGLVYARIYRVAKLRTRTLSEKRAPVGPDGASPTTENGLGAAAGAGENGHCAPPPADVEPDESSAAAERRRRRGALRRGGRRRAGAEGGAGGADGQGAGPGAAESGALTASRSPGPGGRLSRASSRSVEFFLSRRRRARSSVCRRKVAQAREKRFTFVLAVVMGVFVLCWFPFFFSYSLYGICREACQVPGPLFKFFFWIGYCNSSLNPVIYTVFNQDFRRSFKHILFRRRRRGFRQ
Put plainly: DRUGMATRIX: Adrenergic Alpha-2C radioligand binding (ligand: [3H] MK-912). In kind it is cell membranes, Sf9, Membrane. Conditions: sf9.

Test [3] addresses C-C chemokine receptor type 5 (Homo sapiens, UniProt P51681). In kind it is cell membranes, Membrane. The note with it: hek293.
The next test concerns the target T3, Thromboxane-A synthase (Homo sapiens, UniProt P24557).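 Further: enzyme inhibition assay with PGH2 supplied as substrate; in other assays of this panel Not Active means under 50% inhibition at 10 µM.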
T3 sequence (P24557 whole entry): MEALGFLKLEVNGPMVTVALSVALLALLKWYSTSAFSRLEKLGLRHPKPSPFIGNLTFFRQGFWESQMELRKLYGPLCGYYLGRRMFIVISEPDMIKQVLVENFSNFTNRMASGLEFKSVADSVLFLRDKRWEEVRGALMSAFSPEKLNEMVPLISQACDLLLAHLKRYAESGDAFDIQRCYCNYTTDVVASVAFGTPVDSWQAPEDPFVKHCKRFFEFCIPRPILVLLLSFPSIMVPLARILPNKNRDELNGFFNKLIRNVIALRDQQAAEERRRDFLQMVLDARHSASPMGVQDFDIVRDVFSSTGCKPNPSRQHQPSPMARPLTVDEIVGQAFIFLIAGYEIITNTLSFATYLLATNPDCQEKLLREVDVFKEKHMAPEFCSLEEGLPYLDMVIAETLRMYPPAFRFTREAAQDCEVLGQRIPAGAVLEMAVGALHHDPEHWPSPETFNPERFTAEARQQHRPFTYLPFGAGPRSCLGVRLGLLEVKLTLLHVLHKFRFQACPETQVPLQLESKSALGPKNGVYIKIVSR
Description: biochemical. In kind it is tissue-based, Platelet. Conditions: platelet.

The next test has as its target Nitric oxide synthase 1 (Rattus norvegicus, UniProt P29476). In kind it is tissue-based, Cerebellum. Further: in other assays of this panel Not Active means under 50% inhibition at 10 µM.
The target in test [4] is Sodium-dependent dopamine transporter (Homo sapiens, UniProt Q01959). Description: DRUGMATRIX: Dopamine Transporter radioligand binding (ligand: [125I] RTI-55). In kind it is cell membranes, CHO-K1, Membrane. Conditions: Not Active = under 50% inhibition at 10 µM.
Chain of Sodium-dependent dopamine transporter (Q01959 whole entry): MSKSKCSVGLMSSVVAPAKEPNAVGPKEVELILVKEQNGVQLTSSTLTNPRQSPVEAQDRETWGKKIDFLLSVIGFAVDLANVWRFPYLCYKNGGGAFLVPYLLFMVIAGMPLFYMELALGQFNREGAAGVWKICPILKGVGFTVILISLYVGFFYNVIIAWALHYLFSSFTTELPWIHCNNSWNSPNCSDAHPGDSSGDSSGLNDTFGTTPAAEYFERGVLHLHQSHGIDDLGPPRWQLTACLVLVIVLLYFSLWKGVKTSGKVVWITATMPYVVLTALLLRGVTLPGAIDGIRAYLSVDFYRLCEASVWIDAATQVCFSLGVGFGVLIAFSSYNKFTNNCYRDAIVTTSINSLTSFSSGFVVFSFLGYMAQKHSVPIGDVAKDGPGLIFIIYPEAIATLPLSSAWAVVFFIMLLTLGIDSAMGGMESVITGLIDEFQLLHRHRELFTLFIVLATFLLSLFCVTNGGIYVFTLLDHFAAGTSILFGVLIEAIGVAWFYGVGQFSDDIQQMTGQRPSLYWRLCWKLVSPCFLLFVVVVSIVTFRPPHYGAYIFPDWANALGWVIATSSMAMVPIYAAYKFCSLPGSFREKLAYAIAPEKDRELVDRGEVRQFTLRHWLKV
The target of test [5] is Vascular endothelial growth factor receptor 1 (Homo sapiens, UniProt P17948). In kind it is cell-based. Conditions: huvec. Further: in other assays of this panel Not Active means under 50% inhibition at 10 µM.
Chain of Vascular endothelial growth factor receptor 1 (P17948 whole entry): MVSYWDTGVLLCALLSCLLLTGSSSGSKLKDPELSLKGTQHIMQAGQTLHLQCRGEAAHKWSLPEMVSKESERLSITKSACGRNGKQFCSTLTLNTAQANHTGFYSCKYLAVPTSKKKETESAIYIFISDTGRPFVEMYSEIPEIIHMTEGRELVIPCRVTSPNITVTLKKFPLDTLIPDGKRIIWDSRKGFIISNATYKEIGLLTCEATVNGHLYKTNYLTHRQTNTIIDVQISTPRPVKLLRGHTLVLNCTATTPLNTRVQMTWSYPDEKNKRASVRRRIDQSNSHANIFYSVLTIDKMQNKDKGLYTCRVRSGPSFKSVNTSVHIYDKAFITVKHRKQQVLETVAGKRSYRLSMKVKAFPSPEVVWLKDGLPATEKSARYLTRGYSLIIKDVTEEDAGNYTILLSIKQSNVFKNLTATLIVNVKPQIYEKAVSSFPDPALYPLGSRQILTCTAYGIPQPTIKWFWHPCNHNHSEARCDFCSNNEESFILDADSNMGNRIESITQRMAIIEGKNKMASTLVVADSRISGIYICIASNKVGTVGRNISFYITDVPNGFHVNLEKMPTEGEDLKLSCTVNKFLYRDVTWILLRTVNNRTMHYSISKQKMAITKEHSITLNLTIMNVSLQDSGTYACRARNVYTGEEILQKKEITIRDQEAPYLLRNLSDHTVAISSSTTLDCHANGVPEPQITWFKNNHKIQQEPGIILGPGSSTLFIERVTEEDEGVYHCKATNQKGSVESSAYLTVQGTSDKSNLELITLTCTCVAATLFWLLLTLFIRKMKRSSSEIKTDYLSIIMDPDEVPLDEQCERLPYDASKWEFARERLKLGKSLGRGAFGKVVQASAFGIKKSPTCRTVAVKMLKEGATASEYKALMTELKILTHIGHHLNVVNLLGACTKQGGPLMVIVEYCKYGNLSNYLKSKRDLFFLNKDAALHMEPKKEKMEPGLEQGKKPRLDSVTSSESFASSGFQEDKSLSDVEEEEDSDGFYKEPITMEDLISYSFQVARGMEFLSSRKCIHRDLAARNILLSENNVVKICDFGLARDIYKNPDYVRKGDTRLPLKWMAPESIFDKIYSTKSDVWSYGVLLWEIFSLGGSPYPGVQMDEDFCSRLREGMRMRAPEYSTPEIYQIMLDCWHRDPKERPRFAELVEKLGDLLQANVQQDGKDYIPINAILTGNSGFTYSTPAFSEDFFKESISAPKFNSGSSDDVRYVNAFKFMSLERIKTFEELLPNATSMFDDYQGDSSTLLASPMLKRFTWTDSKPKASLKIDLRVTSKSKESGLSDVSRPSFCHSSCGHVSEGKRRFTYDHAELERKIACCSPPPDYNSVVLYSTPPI
A further test addresses Carbonic anhydrase 2 (Homo sapiens, UniProt P00918). Put plainly: DRUGMATRIX: Carbonic Anhydrase II enzyme inhibition (substrate: 4-Nitrophenyl acetate (4-NPA)). In kind it is tissue-based, Erythrocyte. Conditions: erythrocyte; Not Active = under 50% inhibition at 10 µM.
The nature of test [6]: DRUGMATRIX: Sigma2 radioligand binding (ligand: [3H] Ifenprodil). In kind it is cell membranes, Rattus norvegicus, Wistar, Brain, Membrane. Conditions: Not Active = under 50% inhibition at 10 µM.
Test [7] in a line: DRUGMATRIX: Leukotriene, BLT (LTB4) radioligand binding (ligand: [3H]LTB4). In kind it is cell membranes, Membrane. Conditions: u-937; Not Active = under 50% inhibition at 10 µM.
Test [8] is described as follows: DRUGMATRIX: Imidazoline I2, Central radioligand binding (ligand: [3H] Idazoxan). In kind it is cell membranes, Rattus norvegicus, Wistar, Cerebral cortex, Membrane. Conditions: Not Active = under 50% inhibition at 10 µM.
A further test has as its target T4, Caspase-1 (Homo sapiens, UniProt P29466).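 Further: Caspase-1 enzyme inhibition assay with a peptide substrate; in other assays of this panel Not Active means under 50% inhibition at 10 µM.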
T4 sequence (P29466 whole entry): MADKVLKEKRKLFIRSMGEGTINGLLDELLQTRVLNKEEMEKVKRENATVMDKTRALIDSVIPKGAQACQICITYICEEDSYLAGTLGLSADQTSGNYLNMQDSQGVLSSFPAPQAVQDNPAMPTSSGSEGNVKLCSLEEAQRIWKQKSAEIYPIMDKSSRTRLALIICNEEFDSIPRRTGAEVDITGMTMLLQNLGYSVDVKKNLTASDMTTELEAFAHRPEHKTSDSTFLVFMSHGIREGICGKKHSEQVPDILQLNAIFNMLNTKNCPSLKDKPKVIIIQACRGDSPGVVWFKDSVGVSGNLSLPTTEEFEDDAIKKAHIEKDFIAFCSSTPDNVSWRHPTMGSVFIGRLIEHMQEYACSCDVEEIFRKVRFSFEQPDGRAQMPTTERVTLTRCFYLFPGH
Set-up: species or system Escherichia coli.

The next test deals with Glycine receptor (Rattus norvegicus, UniProt P22771+P24524+P07727+P20781). In kind it is cell membranes, Wistar, Spinal cord, Membrane.

Broadly, the IC50 is the concentration needed to halve the response being measured. A word on the Ki: it is a measure of affinity in units of concentration, obtained from inhibition or displacement.

Each structure is given as a SMILES string.

Chain of Nitric oxide synthase 1 (P29476 whole entry): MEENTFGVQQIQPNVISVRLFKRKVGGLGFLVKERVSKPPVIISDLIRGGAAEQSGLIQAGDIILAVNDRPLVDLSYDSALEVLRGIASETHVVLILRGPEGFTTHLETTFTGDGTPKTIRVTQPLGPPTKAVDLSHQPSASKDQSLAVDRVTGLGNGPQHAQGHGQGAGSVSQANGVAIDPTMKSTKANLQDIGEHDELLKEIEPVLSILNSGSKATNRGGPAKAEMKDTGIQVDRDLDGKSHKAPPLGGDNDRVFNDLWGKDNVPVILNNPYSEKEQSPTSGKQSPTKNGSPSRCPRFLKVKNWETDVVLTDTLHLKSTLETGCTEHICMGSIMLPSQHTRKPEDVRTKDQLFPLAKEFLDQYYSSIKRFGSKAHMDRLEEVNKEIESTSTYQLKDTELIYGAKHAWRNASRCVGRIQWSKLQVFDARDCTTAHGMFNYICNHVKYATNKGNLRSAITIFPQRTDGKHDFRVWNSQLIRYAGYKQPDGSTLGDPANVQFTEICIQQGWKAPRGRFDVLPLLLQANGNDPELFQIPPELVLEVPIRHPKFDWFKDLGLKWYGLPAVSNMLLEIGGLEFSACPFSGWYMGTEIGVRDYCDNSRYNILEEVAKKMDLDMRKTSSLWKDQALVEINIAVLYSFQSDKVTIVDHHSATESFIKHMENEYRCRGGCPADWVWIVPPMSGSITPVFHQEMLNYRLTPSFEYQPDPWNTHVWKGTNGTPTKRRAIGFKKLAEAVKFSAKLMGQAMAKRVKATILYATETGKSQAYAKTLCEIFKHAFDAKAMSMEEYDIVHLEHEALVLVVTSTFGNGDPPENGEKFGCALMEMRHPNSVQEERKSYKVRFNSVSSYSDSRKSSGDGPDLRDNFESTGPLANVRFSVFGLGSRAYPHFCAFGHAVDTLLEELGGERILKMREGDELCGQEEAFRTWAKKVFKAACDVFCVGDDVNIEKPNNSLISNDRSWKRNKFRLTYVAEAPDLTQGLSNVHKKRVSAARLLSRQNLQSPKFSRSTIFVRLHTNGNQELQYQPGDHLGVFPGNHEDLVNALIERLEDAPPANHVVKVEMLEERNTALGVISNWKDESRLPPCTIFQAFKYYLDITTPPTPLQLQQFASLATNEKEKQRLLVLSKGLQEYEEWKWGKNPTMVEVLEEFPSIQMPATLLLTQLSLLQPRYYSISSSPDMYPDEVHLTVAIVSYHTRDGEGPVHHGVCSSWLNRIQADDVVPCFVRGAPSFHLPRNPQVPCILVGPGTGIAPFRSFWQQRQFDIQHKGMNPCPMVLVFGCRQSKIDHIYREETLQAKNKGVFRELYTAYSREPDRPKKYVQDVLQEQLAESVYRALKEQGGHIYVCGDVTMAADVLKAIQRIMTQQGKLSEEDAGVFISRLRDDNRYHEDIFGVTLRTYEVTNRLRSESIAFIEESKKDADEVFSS
Chain of C-C chemokine receptor type 5 (P51681 whole entry): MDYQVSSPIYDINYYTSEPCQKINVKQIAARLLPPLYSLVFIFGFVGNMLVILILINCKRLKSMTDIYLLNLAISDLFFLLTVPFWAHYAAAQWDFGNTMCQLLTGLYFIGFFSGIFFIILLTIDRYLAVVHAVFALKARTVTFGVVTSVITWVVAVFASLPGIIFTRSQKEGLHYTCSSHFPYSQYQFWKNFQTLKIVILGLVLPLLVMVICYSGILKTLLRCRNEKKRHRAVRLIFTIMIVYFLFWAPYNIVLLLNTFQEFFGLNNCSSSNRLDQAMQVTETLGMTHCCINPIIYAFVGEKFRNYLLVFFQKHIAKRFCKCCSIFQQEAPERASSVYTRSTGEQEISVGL

Regarding `CC1=C(/C=C/C(C)=C/C=C/C(C)=C\C(=O)O)C(C)(C)CCC1` [ISOTRETINOIN], the IC50 entry (on D(4) dopamine receptor; in [1]; in [2]; in test [3]; at Thromboxane-A synthase; against Nitric oxide synthase 1) was “Not Active” each time. In addition, the IC50 result (in [4] (cho-k1); in [5]; on Carbonic anhydrase 2; in test [6]; in [7]; in test [8]) was “Not Active” each time. Further, the IC50 entry against Caspase-1 and on Glycine receptor was “Not Active” in each case. The Ki entry in test [1], in [6], in test [7] and in [8] was “Not Active” in each case.

`CO[C@@H]1[C@@H](O[C@@H]2O[C@H](C)[C@@H](O[C@H]3C[C@@](C)(O)[C@@H](OC(=O)CC(C)C)[C@H](C)O3)[C@H](N(C)C)[C@H]2O)[C@@H](CC=O)C[C@@H](C)[C@@H](O)/C=C/C=C/C[C@@H](C)OC(=O)C[C@H]1O` [KITASAMYCIN]: the IC50 entry (at D(4) dopamine receptor; in test [1]; in test [2]; in test [3]; against Thromboxane-A synthase; at Nitric oxide synthase 1) was “Not Active” each time. Besides, the IC50 entry (in test [4] (cho-k1); in test [5]; on Carbonic anhydrase 2; in test [6]; in [7]; in [8]) was “Not Active” in each case. In addition, the IC50 result against Caspase-1 and at Glycine receptor was “Not Active” in each case. Also, the inhibitory constant (Ki) entry in test [1], in [6], in test [7] and in test [8] was “Not Active” throughout.

As to `CC(CCc1ccccc1)NCC(O)c1ccc(O)c(C(N)=O)c1` (centres undefined) [LABETALOL], the IC50 result (on D(4) dopamine receptor; in test [1]; in test [2]; in [3]; against Thromboxane-A synthase; against Nitric oxide synthase 1) was “Not Active” each time. Further, the half-maximal inhibitory concentration (IC50) in test [4] (read-out: IC50) is 1.61 µM; in [5] it was “Not Active”; at Carbonic anhydrase 2, “Not Active”; in test [6] (read-out: IC50) it was 2.82 µM; in test [7] it was “Not Active”; in test [8], “Not Active”. Moreover, the IC50 entry against Caspase-1 and against Glycine receptor was “Not Active” each time. For the same compound, the Ki result in test [1] is “Not Active”; in test [4] (read-out: Ki), 1.28 µM; in test [6] (read-out: Ki) it was 1.73 µM; in test [7], “Not Active”; in test [8] it was “Not Active”.

On to `Nc1nnc(-c2cccc(Cl)c2Cl)c(N)n1` [LAMOTRIGINE], for which the half-inhibitory concentration (IC50) entry (at D(4) dopamine receptor; in test [1]; in test [2]; in [3]; against Thromboxane-A synthase; against Nitric oxide synthase 1) was “Not Active” throughout. In addition, the IC50 entry (in [4] (cho-k1); in test [5]; at Carbonic anhydrase 2; in test [6]; in [7]; in [8]) was “Not Active” in each case. Moreover, the IC50 result on Caspase-1 and against Glycine receptor was “Not Active” throughout. Moreover, the Ki result in test [1], in test [6], in test [7] and in test [8] was “Not Active” throughout.

On to `CCC[C@@H]1C[C@@H](C(=O)N[C@@H]([C@H]2O[C@H](SC)[C@H](O)[C@@H](O)[C@H]2O)[C@@H](C)O)N(C)C1` [LINCOMYCIN], for which the IC50 entry (at D(4) dopamine receptor; in test [1]; in test [2]; in [3]; on Thromboxane-A synthase; at Nitric oxide synthase 1) was “Not Active” throughout. The IC50 entry (in [4] (cho-k1); in test [5]; against Carbonic anhydrase 2; in test [6]; in test [7]; in [8]) was “Not Active” throughout. In addition, the IC50 result against Caspase-1 and against Glycine receptor was “Not Active” in each case. In addition, the Ki entry in test [1], in test [6], in test [7] and in [8] was “Not Active” each time.

Consider `NCCCC[C@H](N[C@@H](CCc1ccccc1)C(=O)O)C(=O)N1CCC[C@H]1C(=O)O` [LISINOPRIL ANHYDROUS], for which the IC50 result (at D(4) dopamine receptor; in test [1]; in [2]; in [3]; against Thromboxane-A synthase; against Nitric oxide synthase 1) was “Not Active” each time. Moreover, the 50% inhibitory concentration (IC50) result (in [4] (cho-k1); in test [5]; against Carbonic anhydrase 2; in [6]; in test [7]; in test [8]) was “Not Active” in each case. For the same compound, the IC50 result against Caspase-1 and against Glycine receptor was “Not Active” each time. Further, the Ki result in test [1], in [6], in [7] and in test [8] was “Not Active” throughout.
